The values that follow come from ChEMBL document CHEMBL1133796, “Antagonists of the human CCR5 receptor as anti-HIV-1 agents. Part 2: structure-activity relationships for substituted 2-Aryl-1-[N-(methyl)-N-(phenylsulfonyl)amino]-4-(piperidin-1-yl)butanes” (Bioorg Med Chem Lett, 2001).

Activity calls are given as the source filed them. No cut-off for these calls is given here.

For data set [1], the target named is C-C chemokine receptor type 5 (Homo sapiens, UniProt P51681). Nature of the data set: Inhibitory activity against specific binding of [125I]-MIP-1 alpha to human CCR5 receptor.
Sequence of C-C chemokine receptor type 5 (P51681 whole entry): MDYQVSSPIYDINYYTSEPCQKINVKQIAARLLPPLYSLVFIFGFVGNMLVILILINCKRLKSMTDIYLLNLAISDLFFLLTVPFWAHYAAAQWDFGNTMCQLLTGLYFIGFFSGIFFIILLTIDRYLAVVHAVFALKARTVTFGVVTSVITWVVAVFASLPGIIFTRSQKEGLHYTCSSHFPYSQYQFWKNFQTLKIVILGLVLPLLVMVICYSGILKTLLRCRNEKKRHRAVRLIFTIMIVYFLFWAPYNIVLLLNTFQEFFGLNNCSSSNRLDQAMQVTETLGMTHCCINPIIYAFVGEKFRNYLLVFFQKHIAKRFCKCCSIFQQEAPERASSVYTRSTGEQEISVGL
For data set [2], the target named is T1, C-C chemokine receptor type 3 (Homo sapiens, UniProt P51677).
T1 sequence (P51677 whole entry): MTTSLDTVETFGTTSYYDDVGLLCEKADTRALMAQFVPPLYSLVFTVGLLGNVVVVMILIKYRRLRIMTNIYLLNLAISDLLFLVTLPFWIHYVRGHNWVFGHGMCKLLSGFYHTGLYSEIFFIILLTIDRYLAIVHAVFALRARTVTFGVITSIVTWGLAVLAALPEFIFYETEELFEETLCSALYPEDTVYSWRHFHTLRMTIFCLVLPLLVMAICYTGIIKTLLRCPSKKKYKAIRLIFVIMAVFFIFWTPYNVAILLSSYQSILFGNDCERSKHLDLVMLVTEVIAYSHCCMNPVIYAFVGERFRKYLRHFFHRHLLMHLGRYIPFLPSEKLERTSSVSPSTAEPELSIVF
Nature of the data set: Compound concentration that causes 50 % inhibition of binding of specific radioligand to human CCR3 receptor.

Data set [3] is filed under the species Homo sapiens. Nature of the data set: Compound was evaluated in an isolated peripheral blood mononuclear cell (PBMC) viral replication assay using the X4-tropic NL4-3 strain; No inhibition. The format is functional.
Data set [4] has as its target C-C chemokine receptor type 2 (Homo sapiens, UniProt P41597). Nature of the data set: Compound concentration that causes 50 % inhibition of binding of specific radioligand to human CCR2 receptor.
In data set [5] the target is C-X-C chemokine receptor type 4 (Homo sapiens) (UniProt P61073). Nature of the data set: Compound concentration that causes 50 % inhibition of binding of specific radioligand to human CXCR4 receptor.
Sequence of C-X-C chemokine receptor type 4 (Homo sapiens) (P61073 whole entry, looked up): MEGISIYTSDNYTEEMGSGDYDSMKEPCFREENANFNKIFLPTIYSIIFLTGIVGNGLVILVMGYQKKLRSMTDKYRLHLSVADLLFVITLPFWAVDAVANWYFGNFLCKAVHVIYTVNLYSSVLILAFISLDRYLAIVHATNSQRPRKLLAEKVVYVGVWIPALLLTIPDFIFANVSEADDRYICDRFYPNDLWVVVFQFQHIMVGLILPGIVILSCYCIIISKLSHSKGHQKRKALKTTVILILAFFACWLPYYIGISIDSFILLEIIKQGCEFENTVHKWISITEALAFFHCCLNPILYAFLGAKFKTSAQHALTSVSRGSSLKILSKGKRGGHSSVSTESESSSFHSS
A short description of data set [6]: Compound was evaluated in an isolated peripheral blood mononuclear cell (PBMC) viral replication assay using the R5-tropic strain SF-162 isolate. In kind it is functional. The settings on record: Homo sapiens.
Data set [7] in a line: Half-life period was evaluated in rat, after administering 1 mg/kg intravenously. The format is ADME, organism-based. On the set-up: dose 1 mg/kg, route intravenous. The settings on record: in vivo, iv.
Data set [8] deals with T2, C-C chemokine receptor type 1 (Homo sapiens, UniProt P32246).
T2 sequence (P32246 whole entry): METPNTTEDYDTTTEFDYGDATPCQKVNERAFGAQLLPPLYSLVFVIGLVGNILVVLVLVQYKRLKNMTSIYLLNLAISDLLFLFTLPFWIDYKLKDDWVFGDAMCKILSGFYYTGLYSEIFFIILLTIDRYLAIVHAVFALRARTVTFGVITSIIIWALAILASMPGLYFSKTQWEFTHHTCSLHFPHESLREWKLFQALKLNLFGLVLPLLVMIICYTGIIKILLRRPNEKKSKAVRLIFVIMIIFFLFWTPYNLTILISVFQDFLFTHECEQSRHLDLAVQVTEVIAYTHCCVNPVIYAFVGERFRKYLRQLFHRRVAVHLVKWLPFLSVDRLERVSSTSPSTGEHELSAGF
Nature of the data set: Compound concentration that causes 50 % inhibition of binding of specific radioligand to human CCR1 receptor.

Data set [9] in a line: Bioavailability (F) was evaluated in rat, after administering 1 mg/kg intravenously. In kind it is ADME, organism-based. As to conditions: in vivo, iv.
The nature of data set [10]: Compound was evaluated in an isolated peripheral blood mononuclear cell (PBMC) viral replication assay using the R5-tropic HIV-1 YU-2 isolate. As to conditions: Homo sapiens. In kind it is functional.

Sequence of C-C chemokine receptor type 2 (P41597 whole entry): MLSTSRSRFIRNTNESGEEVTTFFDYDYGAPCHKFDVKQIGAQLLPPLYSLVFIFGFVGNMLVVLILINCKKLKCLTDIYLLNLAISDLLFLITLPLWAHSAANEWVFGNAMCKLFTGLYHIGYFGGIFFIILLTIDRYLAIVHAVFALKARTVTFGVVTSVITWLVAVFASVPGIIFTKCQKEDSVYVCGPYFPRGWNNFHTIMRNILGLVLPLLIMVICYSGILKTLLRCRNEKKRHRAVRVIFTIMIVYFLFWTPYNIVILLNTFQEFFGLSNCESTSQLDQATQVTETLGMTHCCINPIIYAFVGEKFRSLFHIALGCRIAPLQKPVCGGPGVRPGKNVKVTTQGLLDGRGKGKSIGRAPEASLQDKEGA

As to `CN(C[C@@H](CCN1CCC2(CC1)C[S+]([O-])c1ccccc12)c1cccc(Cl)c1)S(=O)(=O)c1ccccc1` (stereo not given in full), the half-inhibitory concentration (IC50) (commonly the concentration needed to halve the response being measured) is 10 nM in data set [1]; greater than 10 µM in data set [2]; greater than 10 µM in data set [4]; 10 µM in data set [5]; greater than 10 µM in [8]. The NI entry in [3] is “inactive”. Further, the 95% effect concentration (IC95) – broadly, the point of the concentration-response curve where the effect stands at 95% – in data set [6] amounted to 0.8 µM; in data set [10], 1.5 µM. Besides, in [7], the half-life (in general, the time in which the quantity being followed falls by half) was 42 min. Also, in [9], the bioavailability (usually the share of a dose that reaches the circulation, judged against a reference dose that is usually intravenous) came out at 3%.
